What was measured:
SERT = conditions: cited from earlier work
SERT Q332A = SERT Q332A (Homo sapiens, UniProt P31645, Q332A); experiment: [3H]5-HT transport, COS-7 cells, S2 mutant Q332A; assay type: cell-based
Protocol: (§1) All determinations were performed in triplicate.

SERT F335A = SERT F335A (Homo sapiens, UniProt P31645, F335A); experiment: [3H]5-HT transport, COS-7 cells, S2 mutant F335A; assay type: cell-based
Protocol: as §1

SERT WT = SERT WT (Homo sapiens, UniProt P31645); experiment: [3H]IMI dissociation rate assay (allosteric potency), COS-7 membranes; assay type: binding; parameters: expressed in transfected cells; host or cells: COS-7;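 note: radioligand pre-bound 30 min at room temperature to equilibrium, then dissociation followed over 5–70 min, ended by filtration through GF/B filters, at least three independent experiments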

## NC(=O)c1ccc2c(c1)CO[C@@]2(CCCN1CCC(c2ccc3ccc(=O)[nH]c3c2)CC1)c1ccc(F)cc1 [Lu AF60097]
SERT; [3H]IMI bound to S1
  Allosteric potency: ~ 30 nM

## NCCc1c[nH]c2ccc(O)cc12 [5-HT, 5-[1,2-^3H]hydroxytryptamine]
SERT Q332A
  5-HT VMAX: 1151 ± 64 pmol/min/10^5 cells
SERT F335A
  5-HT VMAX: 2368 ± 394 pmol/min/10^5 cells

## CN(C)CCCN1c2ccccc2CCc2ccccc21 [IMI, Imipramine]
SERT WT
  Slope for [3H]IMI dissociation: 0.528 ± 0.012 min⁻¹
SERT; ref Plenge et al 1990 Eur J Pharmacol
  Allosteric properties at SERT: very weak allosteric properties

Source: paper PMC8379219 (Nature Communications, 2021)
